Laboratory results reported in US7939263B2, “Compositions and methods for treating and diagnosing cancer” (The Regents of the University of Michigan, priority 2005, dated 2011).

Tested on: PE13 passaged human breast tumor cells
Assay: Xenograft tumor growth after gamma secretase inhibition
Type: in vivo
Protocol: A) The average tumor volume from L-685-458 treated (n=5) versus control (n=7) animals is plotted for each day measured over 37 days. B) The tumor volume of individual L-685-458 treated and control mice is plotted for each day measured.
In alternative embodiments, gamma secretase activity was decreased using the small-molecule inhibitor L-685,458 (Yan et al., 2004, J. Neurosci. 24:2942) and the effect on tumor growth was assessed in a xenograft model. 20,000 PE13 passaged human breast tumor cells were injected into the mammary fat pads of NOD/SCID mice. The mice were then injected subcutaneously daily with 9 mg/kg L-685,458 (n=5) or vehicle control (n=7) for 25 days. Starting on day 11, the tumor volume was measured three times a week for a total of 48 days. […] The tumor volumes for individual mice are plotted in FIG. 13B. Thus inhibiting gamma secretase activity by using a small molecule gamma secretase inhibitor predicted to reduce Notch signaling reduced tumor growth.

## CC(C)C[C@H](NC(=O)[C@H](Cc1ccccc1)C[C@@H](O)[C@H](Cc1ccccc1)NC(=O)OC(C)(C)C)C(=O)N[C@@H](Cc1ccccc1)C(N)=O [L-685,458]
20,000 PE13 cells in mammary fat pads of NOD/SCID mice, 9 mg/kg subcutaneously daily for 25 days (n=5) vs vehicle control (n=7)
  growth of injected tumor cells: significantly inhibited the growth of injected tumor cells
NOD/SCID mice, 9 mg/kg s.c. daily for 25 days, measured three times a week from day 11, total 48 days, vs vehicle control
  average tumor volume: reduced compared to control animals throughout the study
